Literature values as cited in patent publication US11648207B1, “Extended release pharmaceutical composition of Clozapine” (priority 2021, dated 2023).

Experiments:
[1] = in vivo

solubility in water: very slightly soluble in water
mean terminal half-life [1]: 12 h
Compound: CN1CCN(C2=Nc3cc(Cl)ccc3Nc3ccccc32)CC1 [Clozapine, 8-chloro-11-(4-methyl-1-piperazinyl)-5H-dibenzo[b,e][1,4]diazepine]
